Patent EP0565593B1, “REDUCING PESTICIDAL INTERACTIONS IN CROPS” (priority 1990, dated 1992)
Values joined by “and” are separate entries in the source; they are usually repeats but may differ in a detail not shown here. Equal values may be shown once. Read-outs that look alike come from different tables or passages of the source.

How the values were obtained:
[1] = system: Shattercane (SHCA); format: in vivo
[2] = system: RICE; test: Multi-crop greenhouse test, soil-applied (Examples 65, 66; Tables 64, 65); format: in vivo; parameters: inhibition: dose or concentration left out as unconfirmed; conditions: Oryza sativa, Biocide No. 1 8.96 Kg/Ha alone
Protocol: (§1) Tests according to this invention in various crops indicate widespread application of the invention. In Examples 62-66 below are described tests with a variety of herbicides contacted with COUNTER® 15G in the presence and absence of MON-7400 (Antidote No. 12); MON-13900 (No. 1); MON-4660 (No. 16) and flurazole (No. 16). Those tests were conducted according to Procedures IV or V described above and illustrated further in other foregoing examples. Plants used in all tests were, for crops (as abbreviated in parentheses); cotton (COTT); soybean (SOBE); CORN, grain sorghum (GRSO); wheat (WHEA) and RICE, and the weeds giant foxtail (GIFT) and velvetleaf (VELE). The data in the tables below represent averages of two replications.
(§2) In this test the crops and weeds were planted 1.3 cm deep in 13.7 cm X 27.7 cm pans containing Dupo silt loam soil. The test safeners were applied in acetone solution and COUNTER 15G as dry granules to soil cover layers and incorporated by shaking in a bag. Treated cover layers were placed on seeded pans which were transferred to greenhouse benches and subirrigated. Herbicide was applied POE six (6) days after PPI initiation and observations of plant injury made ten (10) days later; results are shown in Table 61. The herbicide used in this example was BEACON (No. 8).
(§3) In another test in the several crops and weeds used in this test series, the herbicidal component was MON-12000 (No. 1); the other components were the same. the procedure used in this test was the same as that described in Example 62, modified to use a light overhead irrigation (about 0.32 cm/day) during days 4-7 of the test. Table 64 […]

[3] = system: Corn; test: as above; format: in vivo; parameters: inhibition: dose or concentration left out as unconfirmed; conditions: Zea mays, Biocide No. 1 8.96 Kg/Ha alone
Protocol: as §1, §2, §3

[4] = system: wheat (WHEA); test: as above; format: in vivo; parameters: inhibition: dose or concentration left out as unconfirmed; conditions: Triticum aestivum, Biocide No. 1 8.96 Kg/Ha alone
Protocol: as §1, §2, §3

[5] = system: Giant foxtail (GIFT); test: as above; format: in vivo; parameters: inhibition: dose or concentration left out as unconfirmed; conditions: Setaria faberi, Biocide No. 1 8.96 Kg/Ha alone
Protocol: as §1, §2, §3

[6] = system: grain sorghum (GRSO); test: as above; format: in vivo; parameters: inhibition: dose or concentration left out as unconfirmed; conditions: Sorghum, Biocide No. 1 8.96 Kg/Ha alone
Protocol: as §1, §2, §3

[7] = system: soybean (SOBE); test: as above; format: in vivo; parameters: inhibition: dose or concentration left out as unconfirmed; conditions: Glycine max, Biocide No. 1 8.96 Kg/Ha alone
Protocol: as §1, §2, §3

[8] = system: Velvetleaf (VELE); test: whole plant or invertebrate; format: in vivo, Abutilon theophrasti; conditions: in vivo
[9] = system: Velvetleaf (VELE); test: Multi-crop greenhouse test, soil-applied (Examples 65, 66; Tables 64, 65); format: in vivo, Abutilon theophrasti; parameters: inhibition: dose or concentration left out as unconfirmed; conditions: Abutilon theophrasti, Biocide No. 1 8.96 Kg/Ha alone
Protocol: as §1, §2, §3

[10] = system: Corn; test: Greenhouse test in sterile vs. unsterile soils (chemicals and procedures of Example 6); format: in vivo; conditions: Herbicide No. 1
Protocol: Other greenhouse tests were conducted involving the same chemicals and procedures used in Example 6, to determine any effects from microbial breakdown relative to interactions between the herbicide and insecticides in sterile vs. unsterile soils. […] This finding comports with reports in the trade that organophosphates are known to suffer microbial breakdown due to soil microbes.

[11] = system: cotton (COTT); test: Multi-crop greenhouse test, biocide, herbicide and safener applied to soil covers (Examples 65, 66; Tables 64, 65); format: in vivo; parameters: inhibition: dose or concentration left out as unconfirmed; conditions: Gossypium hirsutum, soil, Biocide No. 1 8.96 Kg/Ha alone
Protocol: as §1, §2
In another test in the several crops and weeds used in this test series, the herbicidal component was MON-12000 (No. 1); the other components were the same. the procedure used in this test was the same as that described in Example 62, modified to use a light overhead irrigation (about 0.32 cm/day) during days 4-7 of the test.
In yet another test in this series, XRD-498 (Herbicide No. 21) was used as the herbicidal component in contact with COUNTER 15G in the presence of the above safeners. The various components of the system (biocide, herbicide and safener) were applied concurrently to soil covers of the seeded plants.

[12] = system: Giant foxtail (GIFT); test: whole plant or invertebrate; format: in vivo; conditions: in vivo
[13] = system: Velvetleaf (VELE); format: in vivo, Abutilon theophrasti
[14] = system: velvetleaf (Abutilon theophrasti); test: Greenhouse test, combination of Procedures II and III (Examples 1, 2; Tables 1, 2); format: in vivo; conditions: for % Injury VELE: 3 weeks; for Percent Injury VELE: 7 weeks
[15] = system: Corn
[16] = system: Corn; conditions: in vivo
[17] = system: Corn; test: Greenhouse test, combination of Procedures II and III: insecticide in-furrow or in cover layer, herbicide and antidote incorporated in cover layer (Examples 1-3, 6; Tables 1-3, 6); format: in vivo; conditions: for % Injury Corn / % Corn Injury PN 3320 / % Corn Injury PN 3377: 3 weeks; for Percent Injury Corn: 7 weeks
[18] = system: Corn; test: Greenhouse test Procedure I with PPI or POE herbicide and foliar insecticide (Example 5; Table 5); format: in vivo
Protocol: (§4) Containers were filled and compacted with a fumigated silt loam top soil to a depth of about 1.3 cm from the top of the container. A first container was designated as an untreated control, a second container was designated as a herbicide control, and a third container was designated as a herbicide + antidote test container. Each of the containers was seeded with a crop species. A measured amount of herbicide dispersed or dissolved in acetone was applied to a measured quantity of soil. To this same quantity of soil treated with herbicide, there was added a measured amount of antidote dispersed or dissolved in acetone. The quantity of soil treated with the herbicide and antidote was thoroughly mixed to incorporate the herbicide and antidote in the soil uniformly. The seed bed in the third container of soil was covered with the soil treated with the herbicide and antidote and the container was leveled. For each test series, the seed beds of the first and second containers were likewise covered by soil layers. the cover layer of the first container was not treated with herbicide or antidote.
(§5) Insecticide application was made as described in the tests in the examples below. The containers were then placed on a bench in a greenhouse and sub-irrigated as required for the duration of the test.
(§6) Said herbicide and antidote were sequentially pipetted onto cover layers, which were spread over the seed beds and subirrigated as in Procedure I and allowed to grow to a height of about 10 cm over a period of 11 days. Herbicide No. 1 and Insecticide No. 2 were then sequentially sprayed on the plant foliage. Observations were made three (3) weeks after initial treatment, 10 days after foliar treatment).

[19] = system: VELE (velvetleaf); test: Greenhouse test Procedure II (Example 4; Table 4); format: in vivo, Abutilon theophrasti; conditions: Insecticide 2 3.36 kg/Ha alone; 3 weeks
Protocol: as §4
(§7) This procedure is the same as Procedure I, but modified in the manner that after incorporation of the chemicals (herbicide, antidote and insecticide), the containers with the covered seedbed were treated with an initial overhead irrigation equivalent to 0.6 cm rainfall, then subsequently sub-irrigated as required on greenhouse benches.
(§8) The procedure used in this test was Procedure No. 2 above. Formulations of herbicide, insecticide and antidote were applied via track sprayer sequentially onto cover layers, incorporated into the soil which was spread over seedbeds, then irrigated from above with 0.6 cm water. Observations were made three (3) weeks after treatment.

[20] = system: VELE (velvetleaf); test: Greenhouse test Procedure I with PPI or POE herbicide and foliar insecticide (Example 5; Table 5); format: in vivo, Abutilon theophrasti
Protocol: as §4, §5, §6

[21] = system: Corn; test: Greenhouse test Procedure II: herbicide, insecticide and antidote incorporated in cover layer (Example 4; Table 4); format: in vivo; conditions: Insecticide 2 3.36 kg/Ha alone; 3 weeks
Protocol: as §4, §7, §8

[22] = Ex. 12: Biocide No. 1 8.96 Kg/Ha PPI alone, 13 days after planting
[23] = no antidote, […], observed 10 days after herbicide application
[24] = Ex. 2: Insecticide 1 0.23 Kg/305m alone
[25] = Insecticide 1 0.23 kg/305m alone
[26] = Insecticide 1 (H2O) (crystals scattered in-furrow) alone
[27] = Ex. 6: Insecticide 1 0.23 Kg/305m alone
[28] = Table 14: no antidote, Herbicide No. 7 0.84 Kg/Ha POE and/or Biocide No. 2 8.96 Kg/Ha PPI, per label, 13 days after planting
[29] = no antidote, […], 13 days after planting
[30] = Insecticide 2 1.68 Kg/Ha, herbicide cell '-', mode POE (so in the source)
[31] = Ex. 2: Insecticide 2 3.36 kg/Ha alone
[32] = Ex. 6: Insecticide 2 0.23 Kg/305m alone

SMILES: CCOP(=S)(OCC)SCSC(C)(C)C [Biocide No. 1, S-[[(1,1-dimethyl-ethyl)thio]-methyl]O,O-diethylphosphorodithioate, reference compound]
- % Inhibition SHCA [1, 22]: 25%
- % Inhibition SHCA [1, 23]: 20%
- inhibition ([2]; Table 64): 10%
- inhibition ([2]; Table 65): 0%
- inhibition ([3]; Table 64): 0%
- inhibition ([3]; Table 65): 0%
- inhibition ([4]; Table 64): 0%
- inhibition ([4]; Table 65): 0%
- inhibition ([5]; Table 64): 30%
- inhibition ([5]; Table 65): 30%
- inhibition ([6]; Table 64): 0%
- inhibition ([6]; Table 65): 0%
- inhibition ([7]; Table 64): 0%
- inhibition ([7]; Table 65): 0%
- % Inhibition VELE [8]: 0%
- inhibition ([9]; Table 64): 0%
- inhibition ([9]; Table 65): 0%
- interactions with herbicide in unsterile vs. sterile soil [10]: did not appear to be reduced
- inhibition ([11]; Table 64): 0%
- inhibition ([11]; Table 65): 0%
- % Inhibition GIFT [12]: 10% and 20%
- % Inhibition VELE [13, 23]: 15%
- % Injury VELE [14, 24]: 0%
- Percent Injury VELE [14, 25]: 0%
- Percent Injury VELE [14, 26]: 0%
- % Inhibition Corn [15, 22]: 5%
- effect on corn before application of the herbicide ([15]; in vivo): slight early stunting and leaf malformation
- % Inhibition Corn [16]: 5% and 0%
- % Injury Corn [17, 24]: 3%
- % Corn Injury PN 3320 [17, 27]: 0%
- % Corn Injury PN 3377 [17, 27]: 0%
- Percent Injury Corn [17, 25]: 0%
- Percent Injury Corn [17, 26]: 0%

SMILES: CCOP(=S)(OCC)Oc1nc(Cl)c(Cl)cc1Cl [Biocide No. 2, O,O-Diethyl O-(3,5,6-trichloro-2-pyridyl)phosphorothioate, reference compound]
- % Inhibition SHCA [1, 28]: 0%
- % Inhibition SHCA ([1]; in vivo): 30%
- % Inhibition SHCA [1, 29]: 25%
- % Injury Corn ([18]; Insecticide 2 1.68 Kg/Ha alone): 0%
- % Injury Corn [18, 30]: 35%
- interactions with herbicide in unsterile vs. sterile soil [10]: did not appear to be reduced
- % Injury VELE [19]: 0%
- % Inhibition GIFT [12]: 45% and 70%
- % Injury VELE ([20]; Insecticide 2 1.68 Kg/Ha alone): 0%
- % Injury VELE [20, 30]: 60%
- % Inhibition VELE [13, 28]: 0%
- % Inhibition VELE ([13]; in vivo): 0%
- % Inhibition VELE [13, 29]: 0%
- % Injury VELE [14, 31]: 3%
- Percent Injury VELE ([14]; Insecticide 2 3.36 kg/ha alone): 0%
- % Inhibition Corn [15, 28]: 0%
- % Inhibition Corn ([15]; in vivo): 0%
- % Inhibition Corn [15, 29]: 0%
- % Inhibition Corn [16]: 0%
- % Injury Corn [17, 31]: 8%
- % Corn Injury PN 3320 [17, 32]: 0%
- % Corn Injury PN 3377 [17, 32]: 0%
- Percent Injury Corn ([17]; Insecticide 2 3.36 kg/ha alone): 0%
- % Injury Corn [21]: 0%
